Source: article PMC9569447 (International Journal of Molecular Sciences, 2022)
“And” between values parts separate entries of the source, which are not always exact repeats. Equal entries are not always repeated. Marks after values point to notes of the source that are not given here. Numbered stars: 1 amine (or outer) side, 2 acyl side, 3 side chain; on linkers, the order of the positions; unused ones are H or OH. Bridge positions count the residues as written; N and C are the ends. Square brackets hold non-standard residues; d marks the D form. Side chains are listed from the residue outwards. Peptide text beside a SMILES is read from it. * marks the point of attachment. PEG8 = NCCOCCOCCOCCOCCOCCOCCOCCOCCC(=O)O; Palmitoyl = CCCCCCCCCCCCCCCC(=O)*; hCys = N[C@@H](CCS)C(=O)O; X1 = O=C(CC[*:2])[*:1]

What was measured:
[1] = test system: diet-induced obese (DIO) Sprague Dawley rats; format: in vivo
Excerpt: Male Sprague Dawley rats were fed 60% HF diet (formula: D12492; Research Diets, Inc; New Brunswick, NJ, USA; 5.21 kcal/g) for 16 weeks prior to the start of the study. Rats were then singly housed in BioDAQ cages (Research Diets, Inc.; New Brunswick, NJ, USA) and allowed to acclimate to their new environment for 10 days. Baseline measures of body weight, food intake and water intake were taken for one week to balance the groups and create feeding pairs. Each group (n = 6 animals/group) averaged 714.47 ± 81.60 g at baseline (Table 3).
Effects of ASK2131 were compared to a vehicle-treated group, OXT-treated group, as well as a pair-fed control group. Three days of baseline measures were taken before subcutaneous treatment administration began on day 4 of the study. Assessments were made to body weight, food intake and water intake. ASK2131 was administered at 50 nmol/kg throughout the entire study period. […] OXT-treated animals were started at 50 nmol/kg dose for two days, followed by 150 nmol/kg, then 300 nmol/kg, until ending at 600 nmol/kg for the remainder of the study.

[2] = test system: diet-induced obese (DIO) Sprague Dawley rats; assay: Post-treatment serum levels after the 22-day treatment; format: in vivo, rat
Method: Cardiac puncture was used to collect blood for analysis 2 h post final injection. Commercially available enzyme-linked immunosorbent assays (ELISA) were used for quantitative assessment of leptin (cat. # EZRL-83K; MilliporeSigma, Burlington, MA, USA), insulin (cat. # EZRMI-13K; MilliporeSigma, Burlington, MA, USA), and adiponectin (cat. # EZRAPD-62K MilliporeSigma, Burlington, MA, USA). Serum samples were diluted 1:500 for the adiponectin ELISA using the sample diluent provided with the kit. All ELISAs were completed following the manufacturers recommendations. Levels of glucose, cholesterol (total, HDL, and calculated LDL), triglycerides, ALT, and AST were determined in the serum on a Modular P chemistry analyzer (Roche Diagnostics, Risch-Rotkreuz, Switzerland) by the University of Washington Nutrition and Obesity Research Center’s Analytic Core (Seattle, WA, USA).

[3] = Pharmacokinetics after subcutaneous administration to rats; conditions: sc, 300 nmol/kg
Method: Whole blood samples were immediately centrifuged at 4 °C; separated plasma (~100 uL) was pipetted into micro centrifuge tubes, flash frozen on dry ice, and stored at −80 °C. Quantitative analysis plasma samples were performed by Alturas Analytics (Moscow, ID, USA) via peptide extraction from acidified plasma with acetonitrile followed by LC-MS/MS analysis.

[4] = serum ELISA, after 22 days, mean ± SEM, n = 6 (Oxytocin n = 4)
[5] = serum, 2 h post final injection after 22 days, mean ± SEM, n = 6 (Oxytocin n = 4)
[6] = male, Sprague Dawley, rat, plasma

CCCCCCCCCCCCCCCC(=O)NCCOCCOCCOCCOCCOCCOCCOCCOCCC(=O)NCCCC[C@H](NC(=O)CNC(=O)[C@@H]1CCSCCC(=O)N[C@@H](Cc2ccc(O)cc2)C(=O)N[C@@H]([C@@H](C)CC)C(=O)N[C@@H](CCC(N)=O)C(=O)N[C@@H](CC(N)=O)C(=O)N1)C(=O)NCC(N)=O [ASK2131] (YIQN[hCys]GK([PEG8-Palmitoyl])G-NH2; linker N-5 via X1)
decrease in food intake ([1]; 50 nmol/kg, first 8 days of treatment): 35% | reduction in food intake ([1]; 50 nmol/kg, last 8 days of treatment): 25% | average decline in food intake ([1]; 50 nmol/kg, whole 22-day treatment): 28% | body weight, predicted mean difference (PMD) vs vehicle-treated group ([1]; after 2 days of drug administration, 50 nmol/kg sc, 95% CI −6.52 to −1.15%, p = 0.0011): −3.83% | body weight, predicted mean difference (PMD) vs OXT-treated group ([1]; after 2 days of drug administration, both 50 nmol/kg sc, 95% CI −6.45 to −1.08%, p = 0.0014): −3.77% | Posttreatment body weight ([1]; after 22 days once daily sc, ASK2131 50 nmol/kg, OXT titrated 50 to 600 nmol/kg, n = 6, mean ± SEM): 676 ± 42 g | % change in body weight ([1]; after 22 days vs baseline, once daily sc, ASK2131 50 nmol/kg, OXT titrated 50 to 600 nmol/kg, n = 6, mean ± SEM): −6.6 ± 1.3% and −6.6 ± 1.3 ^c,d % | body weight reduction compared to baseline ([1]; after 22 days, ASK2131 50 nmol/kg sc daily, mean ± standard error): 6.6 ± 1.3% | body weight change, mean difference (MD) vs vehicle ([1]; after 22 days, ASK2131 50 nmol/kg/d, 95% CI −15.6 to −7.4, p < 0.0001): −11.5% | cumulative food intake, mean difference (MD) vs vehicle ([1]; after 22 days, ASK2131 50 nmol/kg/d, 95% CI −1031 to −213.1, p < 0.0008): -621.9 kcal | reduction of food intake compared to baseline ([1]; day 3, 50 nmol/kg/d sc): 39 ± 9% | food intake, predicted mean difference (PMD) vs vehicle-treated group ([1]; day 3, 50 nmol/kg/d sc, 95% CI −80.47 to −11.51%, p = 0.0102): −45.99% | tolerability ([1]; rat, in vivo): well tolerated | water intake ([1]; rat, in vivo): without relevant changes of water intake | body weight reduction (weight loss) vs vehicle at end of treatment ([1]; study completion, 22 days, ASK2131 50 nmol/kg, OXT titrated up to 600 nmol/kg): 11.5% | Calculated LDL ([2]; Calculated LDL = Cholesterol − (HDL + Triglycerides/5), serum after 22 days, mean ± SEM): 15 ± 5 mg/dL | Cholesterol vs. vehicle treated animals ([2]; after 22 days of treatment, result in words): significantly reduced | Insulin [2, 4]: 6.7 ± 1.0 ng/mL | Leptin [2, 4]: 39 ± 9.1 ng/mL | Adiponectin ([2]; serum ELISA, diluted 1:500, after 22 days, mean ± SEM, n = 6 (Oxytocin n = 4)): 62.4 ± 7.3 ng/mL | ALT [2, 5]: 26 ± 2 U/L | AST [2, 5]: 73 ± 8 U/L | Cholesterol [2, 5]: 67 ± 6 ^b mg/dL | Glucose [2, 5]: 237 ± 12 mg/dL | HDL [2, 5]: 21 ± 2 mg/dL | Triglycerides [2, 5]: 182 ± 30 mg/dL | Cmax [3, 6]: 276 nM | Tmax [3, 6]: 4 h | clearance [3, 6]: 1.2 mL/min/kg | Cmax (total maximal plasma concentration) ([3]; male lean Sprague Dawley rats, n = 5 per group, LC-MS/MS): 276 nM | Tmax ([3]; male lean Sprague Dawley rats, n = 5 per group, plasma, LC-MS/MS): 4 h
